Reference: PubChem BioAssay (NCI)
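Exposure lasted 48 hours, with cells grown in 96-well plates and compounds tested at five concentrations. The concentration for 50% growth inhibition is given as GI50. TGI: concentration producing complete growth inhibition.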

Legend:
Test in all cases: NCI anticancer screen, dose series, 48 h
[1] = system: HCT-15 colon
[2] = system: HOP-62 NSCLC
[3] = system: MALME-3M melanoma
[4] = system: SF-539 CNS
[5] = system: SK-MEL-5 melanoma
[6] = system: UACC-257 melanoma
[7] = system: HCC-2998 colon
[8] = system: SN12C renal
[9] = system: A549 NSCLC
[10] = system: UACC-62 melanoma
[11] = system: HL-60(TB) leukemia
[12] = system: SK-MEL-2 melanoma
[13] = system: RXF 393 renal
[14] = system: MCF7 breast
[15] = system: HT29 colon
[16] = system: CAKI-1 renal
[17] = system: KM12 colon
[18] = system: 786-0 renal
[19] = system: SNB-19 CNS
[20] = system: COLO 205 colon
[21] = system: UO-31 renal
[22] = system: BT-549 breast
[23] = system: EKVX NSCLC
[24] = system: NCI-H226 lung
[25] = system: RPMI-8226 leukemia
[26] = system: SK-MEL-28 melanoma
[27] = system: SK-OV-3 ovarian
[28] = system: TK-10 renal
[29] = system: LOX IMVI melanoma
[30] = system: NCI-H460 lung
[31] = system: SNB-75 CNS
[32] = system: OVCAR-4 ovarian
[33] = system: OVCAR-3 ovarian
[34] = system: NCI/ADR-RES ovarian
[35] = system: PC-3 prostate
[36] = system: SF-268 CNS
[37] = system: NCI-H23 lung
[38] = system: SR leukemia
[39] = system: MOLT-4 leukemia
[40] = system: U251 CNS
[41] = system: SF-295 CNS
[42] = system: MDA-MB-231 breast
[43] = system: NCI-H522 lung
[44] = system: SW-620 colon
[45] = system: T-47D breast
[46] = system: HCT-116 colon
[47] = system: OVCAR-5 ovarian
[48] = system: OVCAR-8 ovarian
[49] = system: A498 renal
[50] = system: HS 578T breast
[51] = system: DU-145 prostate
[52] = system: ACHN renal
[53] = system: HOP-92 NSCLC
[54] = system: IGROV1 ovarian
[55] = system: M14 melanoma
[56] = system: CCRF-CEM leukemia

SMILES: COc1ccccc1/C=C/C=N/NC1=NC2C(S1)N(C)C(=O)N2C (configuration not stated)
- GI50 [1]: 3.96 µM
- TGI [1]: > 100 µM
- GI50 [2]: 7.76 µM
- TGI [2]: > 100 µM
- GI50 [3]: 4.73 µM
- TGI [3]: 77.7 µM
- GI50 [4]: 2590 nM
- TGI [4]: 8.6 µM
- GI50 [5]: 3.61 µM
- TGI [5]: 13.8 µM
- GI50 [6]: 8.11 µM
- TGI [6]: > 100 µM
- GI50 [7]: 10.5 µM
- TGI [7]: 33.2 µM
- GI50 [8]: 4.4 µM
- TGI [8]: 30.7 µM
- GI50 [9]: 7.31 µM
- TGI [9]: > 100 µM
- GI50 [10]: 2990 nM
- TGI [10]: 34.1 µM
- GI50 [11]: 545 nM
- TGI [11]: 4.37 µM
- GI50 [12]: 3.02 µM
- TGI [12]: 15.1 µM
- GI50 [13]: 2430 nM
- TGI [13]: 17 µM
- GI50 [14]: 2910 nM
- TGI [14]: > 100 µM
- GI50 [15]: 3.33 µM
- TGI [15]: 13.2 µM
- GI50 [16]: 4.11 µM
- TGI [16]: > 100 µM
- GI50 [17]: 3.92 µM
- TGI [17]: 17.7 µM
- GI50 [18]: 5.77 µM
- TGI [18]: 70.3 µM
- GI50 [19]: 6.28 µM
- TGI [19]: > 100 µM
- GI50 [20]: 4.8 µM
- TGI [20]: 20.3 µM
- GI50 [21]: 4.03 µM
- TGI [21]: 43.6 µM
- GI50 [22]: 2940 nM
- TGI [22]: 12.9 µM
- GI50 [23]: 9.85 µM
- TGI [23]: > 100 µM
- GI50 [24]: 3.53 µM
- TGI [24]: 90.2 µM
- GI50 [25]: 4.8 µM
- TGI [25]: > 100 µM
- GI50 [26]: 8.86 µM
- TGI [26]: > 100 µM
- GI50 [27]: 6.93 µM
- TGI [27]: 66.4 µM
- GI50 [28]: 14.3 µM
- TGI [28]: 72.5 µM
- GI50 [29]: 4.94 µM
- TGI [29]: 21.2 µM
- GI50 [30]: 3.95 µM
- TGI [30]: > 100 µM
- GI50 [31]: 2820 nM
- TGI [31]: 49.3 µM
- GI50 [32]: 9.21 µM
- TGI [32]: > 100 µM
- GI50 [33]: 2500 nM
- TGI [33]: 6.6 µM
- GI50 [34]: 4.19 µM
- TGI [34]: > 100 µM
- GI50 [35]: 5.28 µM
- TGI [35]: > 100 µM
- GI50 [36]: 6.78 µM
- TGI [36]: 38.5 µM
- GI50 [37]: 7.62 µM
- TGI [37]: > 100 µM
- GI50 [38]: 2740 nM
- TGI [38]: 30.4 µM
- GI50 [39]: 4.54 µM
- TGI [39]: > 100 µM
- GI50 [40]: 5.02 µM
- TGI [40]: > 100 µM
- GI50 [41]: 3.68 µM
- TGI [41]: 38.2 µM
- GI50 [42]: 9.27 µM
- TGI [42]: 75.8 µM
- GI50 [43]: 1680 nM
- TGI [43]: 4.54 µM
- GI50 [44]: 4.07 µM
- TGI [44]: > 100 µM
- GI50 [45]: 5.6 µM
- TGI [45]: > 100 µM
- GI50 [46]: 4.36 µM
- TGI [46]: 90.8 µM
- GI50 [47]: 5.55 µM
- TGI [47]: > 100 µM
- GI50 [48]: 5.47 µM
- TGI [48]: 51.9 µM
- GI50 [49]: 11.1 µM
- TGI [49]: 94.6 µM
- GI50 [50]: 3.82 µM
- TGI [50]: > 100 µM
- GI50 [51]: 5.74 µM
- TGI [51]: > 100 µM
- GI50 [52]: 5.67 µM
- TGI [52]: 93.9 µM
- GI50 [53]: 3.39 µM
- TGI [53]: 32.3 µM
- GI50 [54]: 8.3 µM
- TGI [54]: > 100 µM
- GI50 [55]: 3.9 µM
- TGI [55]: 43 µM
- GI50 [56]: 4.42 µM
- TGI [56]: > 100 µM
